According to paper PMC10500568, “Inhibition of MurA Enzyme from Escherichia coli by Flavonoids and Their Synthetic Analogues” (ACS Omega, 2023):
In brackets after ≈: the same amount, converted by molar mass. Where two headings read alike, the source gives them in different places.

Key:
S. aureus (ATCC 29213) = test: Antibacterial assay, broth microdilution MIC; assay type: cell-based, Staphylococcus aureus; settings: for MIC: read-out: MIC S. aureus; for inhibition of S. aureus growth: broth microdilution
Experimental: (§1) To test antimicrobial properties, a broth microdilution method in 96-well plates was used according to Clinical and Laboratory Standards Institute guidelines[31] and European Committee on Antimicrobial Susceptibility Testing ([…]) recommendations.[32] Bacterial suspensions, equivalent to a 0.5 McFarland turbidity standard, were diluted with cation-adjusted Mueller–Hinton broth with TES buffering (ThermoFisher Scientific) to achieve a final inoculum of 10^5 CFU/mL. Compounds dissolved in 100% DMSO at a concentration of 10 mM were mixed with the inoculum and incubated at 35 °C for 20 h.

MurA enzyme from E. coli [1] = biological target: T1, MurA enzyme from E. coli (Escherichia coli, UniProt P0A749); test: MurA dilution assay; assay type: biochemical; settings: compound at 10 times IC50, 30 min preincubation, then 100-fold dilution
Experimental: The enzyme concentration used was the usual concentration in reactivity assays 100-fold (25 μM). After 30 min of preincubation, the mixture was diluted 100-fold, then the previously described reactivity assay was performed using 100 μM PEP.

MurA enzyme from E. coli [2] = biological target: T1, MurA enzyme from E. coli; test: MurA inhibition assay (malachite green, orthophosphate release); assay type: biochemical; settings: for time-dependent inhibition: inactive without preincubation, activity after 30 min of preincubation: 0 min vs 30 min preincubation; for inhibitory activity on MurA in at least one of the three assays: residual activity at 100 μM, threshold 50% RA, no preincubation, 30 min preincubation, or 30 min + DTT
Experimental: To determine the inhibition of MurA, the colorimetric assay with malachite green was used to measure the release of orthophosphate generated during the reaction.[30] […] Time-dependent inhibition assays were also performed by preincubating MurA with the 200 μM UNAG substrate and target compounds for 30 min at 37 °C before starting the reaction with the addition of the second substrate 100 μM PEP, resulting in a final mixture volume of 50 μL. The reaction was stopped after a 15 min incubation at 37 °C by adding the Biomol reagent (100 μL, Enzo Life Sciences, New York), and the absorbance was measured after 5 min at 650 nm using a microplate reader (BioTek, Synergy H4). The final concentration of DMSO in the reaction mixture was 5% (v/v), and 1 μM fosfomycin was used as a reference in the MurA assay. The percentage of residual activity was calculated in comparison to the negative controls, which contained only 5% DMSO. IC50 values were determined by measuring residual activities at 7 different concentrations of the compounds and calculated using GraphPad Prism (GraphPad Software, San Diego, California).
The initial screening of flavonoids was performed under three different assay conditions: (1) without preincubation, (2) with a 30 min preincubation, and (3) with the addition of dithiothreitol (DTT) along with a 30 min preincubation. These different conditions were necessary to understand the mechanism of inhibition of each flavonoid. […] To distinguish whether the adduct formed between the inhibitor and the enzyme was covalent or noncovalent, the inhibitory activity was tested in the presence of 0.1 mM DTT.

E. coli (ATCC 25922) = test: Antibacterial assay, broth microdilution MIC; assay type: cell-based, Escherichia coli; settings: read-out: MIC E. coli
Experimental: as §1

[3] = Staphylococcus aureus, ATCC29213, S. aureus ATCC 29213, 35 °C, 20 h
[4] = 100 μM, 30 min preincubation with addition of DTT (0.1 mM), read-out: RA% (residual activity), 30 min + DTT
[5] = 100 μM, without preincubation, read-out: RA% (residual activity), 0 min
[6] = 30 min preincubation, read-out: IC50, 30 min
[7] = Escherichia coli, ATCC25922, E. coli ATCC 25922, 35 °C, 20 h
[8] = without preincubation, read-out: IC50, 0 min

T1 sequence (P0A749 whole entry): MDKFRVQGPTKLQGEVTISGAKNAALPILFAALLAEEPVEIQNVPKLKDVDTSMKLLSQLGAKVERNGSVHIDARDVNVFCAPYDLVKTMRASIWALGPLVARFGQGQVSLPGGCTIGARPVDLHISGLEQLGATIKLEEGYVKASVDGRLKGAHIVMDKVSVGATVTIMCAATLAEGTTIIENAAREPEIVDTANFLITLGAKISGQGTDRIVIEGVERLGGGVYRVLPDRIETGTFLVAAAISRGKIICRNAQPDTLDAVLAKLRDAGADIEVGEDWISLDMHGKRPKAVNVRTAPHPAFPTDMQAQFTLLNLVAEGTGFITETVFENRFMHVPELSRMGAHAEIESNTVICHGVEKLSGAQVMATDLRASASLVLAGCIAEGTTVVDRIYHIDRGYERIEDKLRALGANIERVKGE

Compound	MIC (S. aureus (ATCC 29213); [3]) [µM]	RA% (residual activity), dilution assay (MurA enzyme from E. coli [1]) [%]	time-dependent inhibition: inactive without preincubation, activity after 30 min of preincubation (MurA enzyme from E. coli [2]; 100 μM)	remaining activity at 100 µM (MurA enzyme from E. coli [2]; [4]) [%]	remaining activity at 100 µM (MurA enzyme from E. coli [2]; [5]) [%]	Hill coefficient, 30 min (MurA enzyme from E. coli [2]; 30 min preincubation)	IC50 (MurA enzyme from E. coli [2]; [6]) [µM]	inhibitory activity on MurA in at least one of the three assays (MurA enzyme from E. coli [2])	MIC (E. coli (ATCC 25922); [7]) [µM]	inhibition of S. aureus growth (S. aureus (ATCC 29213))	Hill coefficient (dose-response curves at 0 and 30 min) (MurA enzyme from E. coli [2]; 0 and 30 min)	Hill coefficient, 0 min (MurA enzyme from E. coli [2]; without preincubation)	IC50 (MurA enzyme from E. coli [2]; [8]) [µM]	MIC (S. aureus (ATCC 29213); Staphylococcus aureus, ATCC29213, 20 h) [µM]	MIC (E. coli (ATCC 25922); Escherichia coli, ATCC25922, 20 h) [µM]	effect of DTT on inhibition (comparison of RAs) (MurA enzyme from E. coli [2]; 30 min preincubation, in the presence of DTT)	MIC (S. aureus (ATCC 29213); S. aureus ATCC 29213, 35 °C, 20 h) [µM]	RA% (residual activity), 30 min + DTT (MurA enzyme from E. coli [2]; 100 μM, 30 min preincubation with addition of DTT (0.1 mM)) [%]	RA% (residual activity), 0 min (MurA enzyme from E. coli [2]; 100 μM, without preincubation) [%]	MIC (E. coli (ATCC 25922); E. coli ATCC 25922, 35 °C, 20 h) [µM]
O=C1c2c(O)cc(O)cc2OC(c2ccc(O)c(O)c2)C1O (stereo not shown) [Compound 47, taxifolin]	> 250	93	active after 30 min of preincubation	105	98	0.5	4.5	showed inhibitory activity	> 250	–	–	–	–	–	–	–	–	–	–	–
COc1cc(O)cc2c1C(=O)C[C@@H](c1ccccc1)O2 [Compound 48, (−)-alpinetin]	> 250	93	active after 30 min of preincubation	102	66	1.6	57	–	> 250	–	–	–	–	–	–	–	–	–	–	–
O=C1c2c(O)cc(O)cc2O[C@H](c2cc(O)c(O)c(O)c2)[C@H]1O [Compound 49, ampelopsin]	125 (≈ 40 µg/mL)	100	–	101	–	0.8	0.48	showed inhibitory activity	> 250	weak inhibition	~1	0.8	36	–	–	–	–	–	–	–
C[C@@H]1O[C@@H](Oc2c(-c3ccc(O)c(O)c3)oc3cc(O)cc(O)c3c2=O)[C@H](O)[C@H](O)[C@H]1O [Compound 10, quercitrin]	–	88	active after 30 min of preincubation	103	66	1.1	33	showed inhibitory activity	–	–	–	–	–	> 250	> 250	–	–	–	–	–
O=c1cc(-c2ccccc2)oc2c(O)c(O)ccc12 [Compound 25, 7,8-dihydroxyflavone]	125 (≈ 31.8 µg/mL)	100	–	89	–	1.4	12.9	showed inhibitory activity	> 250	weak inhibition	–	2	88	–	–	–	–	–	–	–
O=c1c(O)c(-c2ccc(O)c(O)c2)oc2cc(O)ccc12 [Compound 2, fisetin]	> 250	98	–	60	–	1.0	8.8	showed inhibitory activity	> 250	–	–	1.4	91	–	–	reduced inhibition in the presence of DTT	–	–	–	–
myricitrin [Compound 5]	–	97	–	–	–	0.6	–	showed inhibitory activity	–	–	–	–	–	–	–	–	>250	106	76	>250
